Measurements reported in patent US20230122249A1, “1H-PYRAZOLO[4,3-d]PYRIMIDINE COMPOUNDS AS TOLL-LIKE RECEPTOR 7 (TLR7) AGONISTS” (BRISTOL-MYERS SQUIBB COMPANY, priority 2020, published 2023).
pEC50: −log10 of the molar value.

What was measured:
[1] = tested on: CD69 in human whole blood; experiment: Induction of CD69 in human whole blood (hWB); type: cell-based; details: heparinized human whole blood, 17 h, CD69 surface staining; 100% set to 1 uM resiquimod; average where assay repeated
Outline: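 hWB stimulated with compound at 1 uM final (1 mM stock), 37° C o/n (17 hrs). Surface CD69-PE staining with CD14/CD19 gating, fix/lysis, then flow cytometry read. IC50 curves with 100% set to 1 uM resiquimod.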

human TLR7 = target: T1, human TLR7 (Homo sapiens, UniProt Q9NYK1); experiment: Human TLR7 agonist activity (hTLR7 reporter) assay in HEK-Blue TLR7 cells, SEAP readout; type: cell-based; details: 18 h treatment, average where assay repeated
T1 construct: host or cells: HEK-Blue TLR7 cells (engineered human embryonic kidney cells)
T1 sequence (Q9NYK1 27-1049): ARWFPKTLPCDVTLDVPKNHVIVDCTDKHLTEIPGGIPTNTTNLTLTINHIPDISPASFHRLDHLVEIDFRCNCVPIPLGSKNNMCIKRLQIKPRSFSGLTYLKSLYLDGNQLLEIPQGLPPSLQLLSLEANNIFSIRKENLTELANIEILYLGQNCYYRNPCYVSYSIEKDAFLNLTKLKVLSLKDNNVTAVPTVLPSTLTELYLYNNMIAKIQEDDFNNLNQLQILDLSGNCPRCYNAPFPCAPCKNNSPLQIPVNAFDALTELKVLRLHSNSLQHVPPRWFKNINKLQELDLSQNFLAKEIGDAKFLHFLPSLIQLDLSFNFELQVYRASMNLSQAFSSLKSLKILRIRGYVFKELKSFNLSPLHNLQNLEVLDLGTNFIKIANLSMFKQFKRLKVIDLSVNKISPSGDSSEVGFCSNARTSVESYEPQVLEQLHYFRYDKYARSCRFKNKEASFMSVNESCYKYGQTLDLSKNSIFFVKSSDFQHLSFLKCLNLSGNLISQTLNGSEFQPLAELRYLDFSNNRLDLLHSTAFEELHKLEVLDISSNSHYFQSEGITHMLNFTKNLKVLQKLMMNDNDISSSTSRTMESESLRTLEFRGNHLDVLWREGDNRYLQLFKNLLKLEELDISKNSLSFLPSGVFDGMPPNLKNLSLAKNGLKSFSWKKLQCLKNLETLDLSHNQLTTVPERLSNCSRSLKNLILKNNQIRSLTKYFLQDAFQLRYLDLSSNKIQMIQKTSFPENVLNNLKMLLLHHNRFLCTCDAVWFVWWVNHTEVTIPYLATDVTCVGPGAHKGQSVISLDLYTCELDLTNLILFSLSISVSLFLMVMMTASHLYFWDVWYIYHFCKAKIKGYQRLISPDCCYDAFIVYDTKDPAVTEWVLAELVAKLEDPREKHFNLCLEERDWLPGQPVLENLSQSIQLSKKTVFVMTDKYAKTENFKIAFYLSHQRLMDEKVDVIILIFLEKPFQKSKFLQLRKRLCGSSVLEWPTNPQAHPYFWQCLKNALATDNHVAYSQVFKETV
Outline: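 HEK-Blue TLR7 cells (15,000/well) treated with compound for 18 h at 37 °C, 5% CO2. Secreted SEAP measured with Quanti-Blue, 30 min, OD 620 nm. EC50 taken as concentration giving half-maximal response between baseline and maximum.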

Row | Compound | pEC50 [1] | pEC50 (human TLR7)
1 | COc1cc(C(=O)N2CC3(CN(C)C3)C2)ccc1Cn1ncc2nc(N)nc(NCC3CC4(C3)CC4(F)F)c21 (stereo not shown) [Compound 149] | 7.51 | 7.38
2 | CCC[C@@H](CCO)Nc1nc(N)nc2cnn(Cc3ncc(C4=CC5(CCNCC5)C4)cc3OC)c12 [Compound 272, (3S)-3-({5-amino-1-[(5-{7-azaspiro[3.5]non-1-en-2-yl}-3-methoxypyridin-2-yl)methyl]-1H-pyrazolo[4,3-d]pyrimidin-7-yl}amino)hexan-1-ol] | 7.50 | 6.18
3 | COc1cc(CN[C@H]2C[C@H](O)C2)ccc1Cn1ncc2nc(N)nc(NCC3CC4(CC4)C3)c21 [Compound 167] | 8.77 | 7.64
4 | COc1cc(C(=O)NCCCN(C)C)ccc1Cn1ncc2nc(N)nc(NCC3CC4(CC4)C3)c21 [Compound 231] | 7.49 | 6.78
5 | COc1cc(C(=O)N2C[C@H]3C[C@@H]2CN3C)ccc1Cn1ncc2nc(N)nc(NCC3CC4(C3)CC(F)(F)C4)c21 [Compound 189] | 6.00 | 6.11
6 | COc1cc(CN2CC3(CN(C)C3)C2)ccc1Cn1ncc2nc(N)nc(NCc3cc(C)on3)c21 [Compound 211] | 7.47 | 6.19
7 | COc1cc(C(=O)N2CC3(CN(C)C3)C2)ccc1Cn1ncc2nc(N)nc(NCC3CC4(C3)CC(F)(F)C4)c21 [Compound 187] | 6.38 | 5.64
8 | CCC[C@@H](CCO)Nc1nc(N)nc2cnn(Cc3ccc(C(=O)N4CC5(CN(C)C5)C4)cc3OC)c12 [Compound 206] | 7.44 | 7.03
9 | COc1cc(C(=O)NC2CCN(C)CC2)ccc1Cn1ncc2nc(N)nc(NCC3CC4(CC4)C3)c21 [Compound 198] | 7.22 | 7.04
10 | Nc1nc(NCC2CC3(CC3)C2)c2c(cnn2Cc2ccc(C(=O)C3C[C@H]4CNC[C@H]4N3)cc2OC(F)F)n1 (stereo partly shown) [Compound 224] | 6.28 | 5.85
11 | COc1cc(C(=O)N2CC3(CN(C)C3)C2)ccc1Cn1ncc2nc(N)nc(NCC3CC4(CC4)C3)c21 [Compound 173] | 8.27 | 7.68
12 | CCC[C@@H](CCO)Nc1nc(N)nc2cnn(Cc3ccc(C(=O)N4CC5(CNC5)C4)cc3OC)c12 [Compound 209] | 6.71 | 6.62
13 | CCCCNc1nc(N)nc2cnn(Cc3ccc(CN4CCC5(CCNCC5)CC4)cc3OC)c12 [Compound 266] | 8.03 | 6.85
14 | COc1cc(C(=O)N2C[C@H]3CNC[C@H]3C2)ccc1Cn1ncc2nc(N)nc(NCC3CC4(CC4)C3)c21 [Compound 175] | 7.31 | 7.02

Further lines, results first:

Row | pEC50 [1] | pEC50 (human TLR7) | Compound
15 | 8.02 | 7.13 | COc1cc(CN2C[C@H]3CN(C)C[C@H]3C2)ccc1Cn1ncc2nc(N)nc(NCC3CC4(CC4)C3)c21 [Compound 148]
16 | 7.30 | 6.61 | CN1CCN(C(=O)c2ccc(Cn3ncc4nc(N)nc(NCC5CC6(CC6)C5)c43)c(OC(F)F)c2)CC1 [Compound 221]
17 | 7.45 | 7.49 | CCCN1CCC(NC(=O)c2ccc(Cn3ncc4nc(N)nc(NCC5CC6(CC6)C5)c43)c(OC)c2)CC1 [Compound 197]
18 | 8.92 | 7.39 | CCC[C@@H](CCO)Nc1nc(N)nc2c(F)nn(Cc3ccc(CN4CC5(CNC5)C4)cc3OC)c12 [Compound 245]
19 | 6.96 | 7.17 | COc1cc(C(=O)N2CCN(CCO)CC2)ccc1Cn1ncc2nc(N)nc(NCC3CC4(CC4)C3)c21 [Compound 184]
20 | 7.31 | 7.50 | COc1cc(CN2CCN(CCO)CC2)ccc1Cn1ncc2nc(N)nc(NCC3CC4(CC4)C3)c21 [Compound 183]
21 | 8.10 | 6.92 | CCCCNc1nc(N)nc2cnn(Cc3ccc(CN4CC5(CCN(CCO)C5)C4)cc3OC)c12 [Compound 261]
22 | 9.22 | 7.88 | CCC[C@@H](CCO)Nc1nc(N)nc2cnn(Cc3ncc(C4CCC5(CC4)CN(C4CCOCC4)C5)cc3OC)c12 [Compound 271]
23 | 7.48 | 6.75 | CCCCNc1nc(N)nc2cnn(Cc3ccc(CN4CCC5(CCNC5)C4)cc3OC)c12 (stereo not shown) [Compound 265]
